Laboratory results as given in ChEMBL document CHEMBL1201862, “PubChem BioAssay data set” (2004).
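Briefly, cells in 96-well plates were exposed to five compound concentrations for 48 h, and endpoints were estimated by linear interpolation. GI50 marks 50% less growth.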 Active and inactive are the calls of the source. No stated cut-off is given here; in the data, active = GI50 up to about 1.1 µM and inactive = higher.

Key:
Test in all cases: growth of human tumour cells (NCI), 48 h
A498 = system: A498
UACC-257 = system: UACC-257
SF-295 = system: SF-295
DMS-114 = system: DMS-114
NCI/ADR-RES = system: NCI/ADR-RES
UACC-62 = system: UACC-62
SF-268 = system: SF-268
SK-OV-3 = system: SK-OV-3
EKVX = system: EKVX
DLD-1 = system: DLD-1
Malme-3M = system: Malme-3M
RXF 393 = system: RXF 393
SK-MEL-2 = system: SK-MEL-2
HCT-15 = system: HCT-15
KM12 = system: KM12
OVCAR-4 = system: OVCAR-4
M14 = system: M14
ACHN = system: ACHN
CAKI-1 = system: CAKI-1

Row | SMILES | GI50 (A498) | GI50 (UACC-257) | GI50 (SF-295) | GI50 (DMS-114) | GI50 (NCI/ADR-RES) | GI50 (UACC-62) | GI50 (SF-268) | GI50 (SK-OV-3) | GI50 (EKVX) | GI50 (DLD-1) | GI50 (Malme-3M) | GI50 (RXF 393) | GI50 (SK-MEL-2) | GI50 (HCT-15) | GI50 (KM12) | GI50 (OVCAR-4) | GI50 (M14) | GI50 (ACHN) | GI50 (CAKI-1)
1 | COc1nc(SC)nc2c1cnn2C1OC(C(O)CO)C(OC)C1O (centres undefined) | > 100 µM (inactive) | > 75.7 µM (inactive) | > 100 µM (inactive) | > 80 µM (inactive) | > 100 µM (inactive) | > 65.6 µM (inactive) | > 92.7 µM (inactive) | > 100 µM (inactive) | > 100 µM (inactive) | > 100 µM (inactive) | > 100 µM (inactive) | > 83.2 µM (inactive) | > 100 µM (inactive) | > 83 µM | > 78.9 µM (inactive) | 69.3 µM (inactive) | – | – | –
2 | O=c1[nH]c(=O)n(C2CC(O)C(CO)O2)cc1C(OCC(F)(F)F)OCC(F)(F)F (centres undefined) | > 100 µM (inactive) | > 100 µM (inactive) | > 100 µM (inactive) | > 100 µM (inactive) | – | > 100 µM (inactive) | > 100 µM (inactive) | > 100 µM (inactive) | > 100 µM (inactive) | > 100 µM (inactive) | > 100 µM (inactive) | > 100 µM (inactive) | > 100 µM (inactive) | – | > 100 µM (inactive) | > 100 µM (inactive) | > 100 µM (inactive) | > 100 µM (inactive) | > 100 µM (inactive)
3 | O=C(NN1C(=O)CS(=O)(=O)C1c1ccc(Cl)c(Cl)c1)c1ccncc1 (centres undefined) | > 90.4 µM (inactive) | > 100 µM (inactive) | > 87.5 µM (inactive) | 61.2 µM (inactive) | > 92.7 µM (inactive) | > 100 µM (inactive) | > 81.5 µM (inactive) | 57.5 µM (inactive) | > 74 µM (inactive) | > 100 µM (inactive) | > 100 µM (inactive) | > 69 µM (inactive) | > 100 µM (inactive) | > 100 µM | > 100 µM (inactive) | > 100 µM (inactive) | – | – | > 100 µM (inactive)
4 | C[N+](C)([O-])CCOc1cc2c(c3ccccc13)-c1ccccc1C2=O | 20.3 µM (inactive) | 6.65 µM (inactive) | 4.63 µM (inactive) | 7.83 µM (inactive) | 14.3 µM (inactive) | 14.4 µM (inactive) | 10.9 µM (inactive) | 35.4 µM (inactive) | 25.9 µM (inactive) | 17 µM (inactive) | 14 µM (inactive) | 17.7 µM (inactive) | 18.4 µM (inactive) | 28.2 µM | 13.6 µM (inactive) | 3.92 µM (inactive) | – | – | 21.5 µM (inactive)
5 | CN(C)CCNC(=O)c1cccc2ccc(-c3ccc(F)cc3)nc12 | 7.1 µM (inactive) | 5.51 µM (inactive) | 5.7 µM (inactive) | 5.48 µM (inactive) | 3.18 µM (inactive) | 3.95 µM (inactive) | 5.27 µM (inactive) | 7.62 µM (inactive) | – | 3.64 µM (inactive) | 4.9 µM (inactive) | 7.38 µM (inactive) | 9.18 µM (inactive) | 3.85 µM | 6.67 µM (inactive) | 4.38 µM (inactive) | – | – | 2.69 µM (inactive)
6 | O=[N+]([O-])c1ccc2[nH]c3c(-c4ccccc4)nccc3c2c1 | 82.6 µM (inactive) | 30 µM (inactive) | 18 µM (inactive) | 18.9 µM (inactive) | 16 µM (inactive) | 14.8 µM (inactive) | 25 µM (inactive) | 12.9 µM (inactive) | 21.1 µM (inactive) | 3.73 µM (inactive) | 18.9 µM (inactive) | 25.4 µM (inactive) | 35 µM (inactive) | 8.59 µM | 34.8 µM (inactive) | 10.5 µM (inactive) | – | – | –
